Results from paper PMC5218480 (PLoS ONE, 2017).

Tested on: MV-4-11 cells
Assay: Gene expression microarray analysis (Affymetrix PrimeView) and GSEA
Format: cell-based, human
Set-up: RFU PODN (11730768_x_at) / Fold change /veh PODN (11730768_x_at) / RFU LINC00158 (11744669_a_at) / Fold change /veh LINC00158 (11744669_a_at) / RFU DUSP10 (11751237_a_at) / Fold change /veh DUSP10 (11751237_a_at) / RFU ID3 (11757404_x_at) / Fold change /veh ID3 (11757404_x_at) / RFU PLEKHG5 (11737974_s_at) / Fold change /veh PLEKHG5 (11737974_s_at) / RFU LRRC4B (11730491_at) / Fold change /veh LRRC4B (11730491_at) / RFU GIMAP4 (11747438_a_at) / Fold change /veh GIMAP4 (11747438_a_at) / RFU KRT8 (11758183_x_at) / Fold change /veh KRT8 (11758183_x_at) / RFU CNN1 (11734310_a_at) / Fold change /veh CNN1 (11734310_a_at) / RFU VPS37D (11726825_at) / Fold change /veh VPS37D (11726825_at) / RFU C10orf10 (11716522_x_at) / Fold change /veh C10orf10 (11716522_x_at) / RFU KIR2DL2 /// KIR2DL4 /// KIR2DL5A /// KIR2DL5B /// KIR2DS1 /// KIR2DS2 /// KIR2DS3 /// KIR2DS4 /// KIR3DL3 /// KIR3DL3 /// KIR3DS1 (11738374_at) / Fold change /veh KIR2DL2 /// KIR2DL4 /// KIR2DL5A /// KIR2DL5B /// KIR2DS1 /// KIR2DS2 /// KIR2DS3 /// KIR2DS4 /// KIR3DL3 /// KIR3DL3 /// KIR3DS1 (11738374_at) / RFU C1QL1 (11718748_at) / Fold change /veh C1QL1 (11718748_at) / RFU TMPRSS4 (11747572_a_at) / Fold change /veh TMPRSS4 (11747572_a_at) / RFU HAMP (11756126_x_at) / Fold change /veh HAMP (11756126_x_at) / RFU RNFT2 (11725882_a_at) / Fold change /veh RNFT2 (11725882_a_at) / RFU NR4A2 (11747474_a_at) / Fold change /veh NR4A2 (11747474_a_at) / RFU ABCC12 (11746883_a_at) / Fold change /veh ABCC12 (11746883_a_at) / RFU TMEM136 (11760407_x_at) / Fold change /veh TMEM136 (11760407_x_at) / RFU CLDN22 /// WWC2 (11732394_at) / Fold change /veh CLDN22 /// WWC2 (11732394_at) / RFU HLA-DPB1 (11760878_x_at) / Fold change /veh HLA-DPB1 (11760878_x_at) / RFU SPINT1 (11716480_a_at) / Fold change /veh SPINT1 (11716480_a_at) / RFU GAP43 (11754022_s_at) / Fold change /veh GAP43 (11754022_s_at) / RFU A4GNT (11735810_at) / Fold change /veh A4GNT (11735810_at) / RFU PRB3 (11715151_x_at) / Fold change /veh PRB3 (11715151_x_at) / RFU TUBB4B (11761932_at) / Fold change /veh TUBB4B (11761932_at) / RFU CAPN14 (11732068_a_at) / Fold change /veh CAPN14 (11732068_a_at) / RFU TMCC2 (11721928_a_at) / Fold change /veh TMCC2 (11721928_a_at) / RFU IRGQ (11745062_a_at) / Fold change /veh IRGQ (11745062_a_at) / RFU FAM174B (11720279_a_at) / Fold change /veh FAM174B (11720279_a_at) / RFU TMPRSS4 (11748680_a_at) / Fold change /veh TMPRSS4 (11748680_a_at) / RFU FAM212B (11763350_a_at) / Fold change /veh FAM212B (11763350_a_at) / RFU PLEKHG5 (11743358_a_at) / Fold change /veh PLEKHG5 (11743358_a_at) / RFU ZSCAN30 (11745921_a_at) / Fold change /veh ZSCAN30 (11745921_a_at) / RFU CMKLR1 (11741424_a_at) / Fold change /veh CMKLR1 (11741424_a_at) / RFU LOC101060620 /// MAPK8IP1 (11723275_at) / Fold change /veh LOC101060620 /// MAPK8IP1 (11723275_at) / RFU SPTSSB (11747773_x_at) / Fold change /veh SPTSSB (11747773_x_at) / RFU PRSS12 (11739890_at) / Fold change /veh PRSS12 (11739890_at) / RFU BIN1 (11741810_x_at) / Fold change /veh BIN1 (11741810_x_at) / RFU WNT11 (11732464_a_at) / Fold change /veh WNT11 (11732464_a_at) / RFU C10orf10 (11716521_a_at) / Fold change /veh C10orf10 (11716521_a_at) / RFU C5orf56 (11738089_at) / Fold change /veh C5orf56 (11738089_at) / RFU CYB561 (11721691_x_at) / Fold change /veh CYB561 (11721691_x_at) / RFU ANKRD19P (11752326_a_at) / Fold change /veh ANKRD19P (11752326_a_at) / RFU OR2T12 /// OR2T33 /// OR2T8 (11738714_s_at) / Fold change /veh OR2T12 /// OR2T33 /// OR2T8 (11738714_s_at) / RFU VCAN (11748164_a_at) / Fold change /veh VCAN (11748164_a_at) / RFU JSRP1 (11732532_at) / Fold change /veh JSRP1 (11732532_at) / RFU KRTAP10-11 (11738290_x_at) / Fold change /veh KRTAP10-11 (11738290_x_at) / RFU MYO3A (11730013_a_at) / Fold change /veh MYO3A (11730013_a_at) / RFU EBF3 (11725865_a_at) / Fold change /veh EBF3 (11725865_a_at) / RFU CAMK2N1 (11719241_x_at) / Fold change /veh CAMK2N1 (11719241_x_at) / RFU C5orf56 (11738088_a_at) / Fold change /veh C5orf56 (11738088_a_at) / RFU OLFML3 (11715873_a_at) / Fold change /veh OLFML3 (11715873_a_at) / RFU LOC100653217 /// NTM (11731650_a_at) / Fold change /veh LOC100653217 /// NTM (11731650_a_at) / RFU MAPK11 (11762145_a_at) / Fold change /veh MAPK11 (11762145_a_at) / RFU FIZ1 (11724087_x_at) / Fold change /veh FIZ1 (11724087_x_at) / RFU OASL (11726364_x_at) / Fold change /veh OASL (11726364_x_at) / RFU SOX15 (11748057_x_at) / Fold change /veh SOX15 (11748057_x_at) / RFU CD79A (11719716_a_at) / Fold change /veh CD79A (11719716_a_at) / RFU HIST1H1D (11736915_at) / Fold change /veh HIST1H1D (11736915_at) / RFU CASKIN2 (11723855_a_at) / Fold change /veh CASKIN2 (11723855_a_at) / RFU LOC730098 (11760151_x_at) / Fold change /veh LOC730098 (11760151_x_at) / RFU OR4N2 (11742367_at) / Fold change /veh OR4N2 (11742367_at) / RFU PRRT2 (11749266_a_at) / Fold change /veh PRRT2 (11749266_a_at) / RFU SNX32 (11753110_a_at) / Fold change /veh SNX32 (11753110_a_at) / RFU CDHR5 (11726645_a_at) / Fold change /veh CDHR5 (11726645_a_at) / RFU RCAN1 (11760418_a_at) / Fold change /veh RCAN1 (11760418_a_at) / RFU FAM167A (11723789_a_at) / Fold change /veh FAM167A (11723789_a_at) / RFU FAM26E (11764081_at) / Fold change /veh FAM26E (11764081_at) / RFU ISYNA1 (11749810_s_at) / Fold change /veh ISYNA1 (11749810_s_at) / RFU ACY1 (11761880_at) / Fold change /veh ACY1 (11761880_at) / RFU 11764098_at / Fold change /veh 11764098_at / RFU SAMD14 (11745864_x_at) / Fold change /veh SAMD14 (11745864_x_at) / RFU NPB (11741838_a_at) / Fold change /veh NPB (11741838_a_at) / RFU TMPRSS6 (11731388_a_at) / Fold change /veh TMPRSS6 (11731388_a_at) / RFU KRTAP10-2 (11738614_at) / Fold change /veh KRTAP10-2 (11738614_at) / RFU ARHGAP8 /// PRR5-ARHGAP8 (11727945_x_at) / Fold change /veh ARHGAP8 /// PRR5-ARHGAP8 (11727945_x_at) / RFU KRTAP5-7 /// NADSYN1 (11734609_at) / Fold change /veh KRTAP5-7 /// NADSYN1 (11734609_at) / RFU RASL12 (11751679_a_at) / Fold change /veh RASL12 (11751679_a_at) / RFU CDKN2B (11736163_a_at) / Fold change /veh CDKN2B (11736163_a_at) / RFU PRF1 (11729649_at) / Fold change /veh PRF1 (11729649_at) / RFU, ZNF638 /// ZNF638-IT1 / Fold change vs veh, ZNF638 /// ZNF638-IT1 / RFU, PANK3 / Fold change vs veh, PANK3 / RFU, SH3YL1 / Fold change vs veh, SH3YL1 / RFU, ZEB2 / Fold change vs veh, ZEB2 / RFU, NRIP1 / Fold change vs veh, NRIP1 / RFU, PTTG1IP / Fold change vs veh, PTTG1IP / RFU, CAPN2 / Fold change vs veh, CAPN2 / RFU, MED14 / Fold change vs veh, MED14 / RFU, SNORA58 / Fold change vs veh, SNORA58 / RFU, C1orf63 / Fold change vs veh, C1orf63 / RFU, LRRFIP1 / Fold change vs veh, LRRFIP1 / RFU, NDUFAF7 / Fold change vs veh, NDUFAF7 / RFU, SLC12A2 / Fold change vs veh, SLC12A2 / RFU, IBTK / Fold change vs veh, IBTK / RFU, ESF1 / Fold change vs veh, ESF1 / Fold change vs veh, TMEM50B / RFU, TAOK1 / Fold change vs veh, TAOK1 / RFU, ACBD3 / Fold change vs veh, ACBD3 / RFU, TMA16 / Fold change vs veh, TMA16 / RFU, RWDD3 / Fold change vs veh, RWDD3 / RFU, BCAT1 / Fold change vs veh, BCAT1 / RFU, EDEM3 / Fold change vs veh, EDEM3 / RFU, TMEM33 / Fold change vs veh, TMEM33 / RFU, WDR75 / Fold change vs veh, WDR75 / RFU, AHCTF1 / Fold change vs veh, AHCTF1 / RFU, TFRC / Fold change vs veh, TFRC / RFU, ZDHHC17 / Fold change vs veh, ZDHHC17 / RFU, NOM1 / Fold change vs veh, NOM1 / RFU, ARL8B / Fold change vs veh, ARL8B / RFU, ZBTB11 / Fold change vs veh, ZBTB11 / RFU, TAMM41 / Fold change vs veh, TAMM41 / RFU, KIAA1704 /// LOC100996395 / Fold change vs veh, KIAA1704 /// LOC100996395 / RFU, ING1 / Fold change vs veh, ING1 / RFU, TRMT61B / Fold change vs veh, TRMT61B / RFU, FUBP3 / Fold change vs veh, FUBP3 / RFU, TP53 / Fold change vs veh, TP53 / RFU, TNKS2 / Fold change vs veh, TNKS2 / RFU, ZFP14 / Fold change vs veh, ZFP14 / RFU, ACTR2 / Fold change vs veh, ACTR2 / RFU, PPP3R1 / Fold change vs veh, PPP3R1 / RFU, PIK3R1 / Fold change vs veh, PIK3R1 / RFU, HNRNPA1 / Fold change vs veh, HNRNPA1 / RFU, RNF170 / Fold change vs veh, RNF170 / RFU, ZNF28 / Fold change vs veh, ZNF28 / RFU, RNGTT / Fold change vs veh, RNGTT / RFU, OGT / Fold change vs veh, OGT / RFU, BRD1 / Fold change vs veh, BRD1 / RFU, MARS / Fold change vs veh, MARS / RFU, ZNF655 / Fold change vs veh, ZNF655 / RFU, FAHD1 / Fold change vs veh, FAHD1 / RFU, BDP1 / Fold change vs veh, BDP1 / RFU, LRRCC1 / Fold change vs veh, LRRCC1 / RFU, ARID1A / Fold change vs veh, ARID1A / RFU, ZNF146 / Fold change vs veh, ZNF146 / RFU, ZNF330 / Fold change vs veh, ZNF330 / RFU, GPN3 / Fold change vs veh, GPN3 / RFU, C9orf123 / Fold change vs veh, C9orf123 / RFU, N4BP2L2 / Fold change vs veh, N4BP2L2 / RFU, ARFIP1 / Fold change vs veh, ARFIP1 / RFU, FAM179B / Fold change vs veh, FAM179B / RFU, BCL10 / Fold change vs veh, BCL10 / RFU, UHRF1BP1L / Fold change vs veh, UHRF1BP1L / RFU, BET1 / Fold change vs veh, BET1 / RFU, CNOT2 / Fold change vs veh, CNOT2 / RFU, ZNF268 / Fold change vs veh, ZNF268 / Fold change vs veh, ZNF507 / RFU, DGCR2 / Fold change vs veh, DGCR2 / RFU, WDSUB1 / Fold change vs veh, WDSUB1 / Fold change vs veh, HSP90B1 /// MIR3652 / RFU, ADSS / Fold change vs veh, ADSS / RFU, GK / Fold change vs veh, GK / RFU, ZNF148 / Fold change vs veh, ZNF148 / RFU, TAF9 / Fold change vs veh, TAF9 / RFU, SLC1A5 / Fold change vs veh, SLC1A5 / RFU, SLMO2 / Fold change vs veh, SLMO2 / RFU, ABCC4 / Fold change vs veh, ABCC4 / RFU, LOC101060439 /// RAP1B / Fold change vs veh, LOC101060439 /// RAP1B / RFU, RFX7 / Fold change vs veh, RFX7 / RFU, GTPBP10 / Fold change vs veh, GTPBP10 / RFU, CNEP1R1 / Fold change vs veh, CNEP1R1 / RFU, BIVM-ERCC5 /// ERCC5 / Fold change vs veh, BIVM-ERCC5 /// ERCC5 / RFU, ILF3 / Fold change vs veh, ILF3 / RFU 11762660_at / Fold change /veh 11762660_at / RFU VCAN (11757783_s_at) / Fold change /veh VCAN (11757783_s_at) / RFU DDX43 (11728927_at) / Fold change /veh DDX43 (11728927_at) / RFU KRT8 (11758188_x_at) / Fold change /veh KRT8 (11758188_x_at) / RFU NKD1 (11759106_at) / Fold change /veh NKD1 (11759106_at) / RFU SRD5A1 (11742802_a_at) / Fold change /veh SRD5A1 (11742802_a_at) / RFU TPSAB1 /// TPSB2 (11721975_s_at) / Fold change /veh TPSAB1 /// TPSB2 (11721975_s_at) / RFU GSTM3 (11746129_a_at) / Fold change /veh GSTM3 (11746129_a_at) / RFU IL23R (11737362_x_at) / Fold change /veh IL23R (11737362_x_at) / RFU TMEM51 (11727254_a_at) / Fold change /veh TMEM51 (11727254_a_at) / RFU PIWIL2 (11732686_x_at) / Fold change /veh PIWIL2 (11732686_x_at) / RFU ORM1 (11744905_x_at) / Fold change /veh ORM1 (11744905_x_at) / RFU CCDC152 (11743942_at) / Fold change /veh CCDC152 (11743942_at) / RFU ECM1 (11717891_a_at) / Fold change /veh ECM1 (11717891_a_at) / RFU IL23R (11748794_a_at) / Fold change /veh IL23R (11748794_a_at) / RFU TNFAIP8L3 (11732012_x_at) / Fold change /veh TNFAIP8L3 (11732012_x_at) / RFU MBOAT4 (11741988_at) / Fold change /veh MBOAT4 (11741988_at) / RFU 11764193_at / Fold change /veh 11764193_at / RFU TMEM53 (11763286_at) / Fold change /veh TMEM53 (11763286_at) / RFU MAGEB2 (11727129_at) / Fold change /veh MAGEB2 (11727129_at) / RFU TMEM200A (11744735_a_at) / Fold change /veh TMEM200A (11744735_a_at) / RFU CCDC152 (11751479_a_at) / Fold change /veh CCDC152 (11751479_a_at) / RFU FAM211A (11726209_a_at) / Fold change /veh FAM211A (11726209_a_at) / RFU RGS16 (11746705_a_at) / Fold change /veh RGS16 (11746705_a_at) / RFU VCAN (11755009_s_at) / Fold change /veh VCAN (11755009_s_at) / RFU RHOB (11743442_s_at) / Fold change /veh RHOB (11743442_s_at) / RFU RGS16 (11720943_a_at) / Fold change /veh RGS16 (11720943_a_at) / RFU RGS16 (11720944_at) / Fold change /veh RGS16 (11720944_at) / RFU, VPS4B / Fold change vs veh, VPS4B / RFU, CREB1 / Fold change vs veh, CREB1 / RFU, DNAJC13 / Fold change vs veh, DNAJC13 / RFU, GNAQ / Fold change vs veh, GNAQ / RFU, CDK5R1 / Fold change vs veh, CDK5R1 / RFU, ZRANB3 / Fold change vs veh, ZRANB3 / RFU, CUL4A / Fold change vs veh, CUL4A / RFU, CCNY / Fold change vs veh, CCNY / RFU, UFL1 / Fold change vs veh, UFL1 / RFU, COG3 / Fold change vs veh, COG3 / RFU, DIAPH2 / Fold change vs veh, DIAPH2 / RFU, SKA2 / Fold change vs veh, SKA2 / RFU, AFF3 / Fold change vs veh, AFF3 / RFU, LMF1 / Fold change vs veh, LMF1 / RFU, IPO11 / Fold change vs veh, IPO11 / RFU, DFFB / Fold change vs veh, DFFB / RFU, FOXP1 / Fold change vs veh, FOXP1 / RFU, CARD8 / Fold change vs veh, CARD8 / RFU, STRN3 / Fold change vs veh, STRN3 / RFU, ADK / Fold change vs veh, ADK / RFU, RASSF2 / Fold change vs veh, RASSF2 / RFU, WIPF1 / Fold change vs veh, WIPF1 / RFU, LARP1B / Fold change vs veh, LARP1B / RFU, RASA1 / Fold change vs veh, RASA1 / RFU, RB1 / Fold change vs veh, RB1 / RFU, PPFIA1 / Fold change vs veh, PPFIA1 / RFU, MAT2A / Fold change vs veh, MAT2A / RFU, CCT5 / Fold change vs veh, CCT5 / RFU, WDR92 / Fold change vs veh, WDR92 / RFU, CUX1 / Fold change vs veh, CUX1 / RFU, TTC7A / Fold change vs veh, TTC7A / RFU, TMEM135 / Fold change vs veh, TMEM135 / RFU, DEPTOR / Fold change vs veh, DEPTOR / RFU, CPM / Fold change vs veh, CPM / RFU, DNAJB6 / Fold change vs veh, DNAJB6 / RFU, CACNA2D3 / Fold change vs veh, CACNA2D3 / RFU, DTX4 / Fold change vs veh, DTX4 / RFU, TFCP2 / Fold change vs veh, TFCP2 / RFU, GMCL1 /// GMCL1P1 / Fold change vs veh, GMCL1 /// GMCL1P1 / RFU, AEBP2 / Fold change vs veh, AEBP2 / RFU, SNHG1 /// SNORD22 /// SNORD25 /// SNORD26 /// SNORD27 /// SNORD28 /// SNORD29 /// SNORD31 / Fold change vs veh, SNHG1 /// SNORD22 /// SNORD25 /// SNORD26 /// SNORD27 /// SNORD28 /// SNORD29 /// SNORD31 / Fold change (Aza/veh), C12orf56 (ProbeSet 11735607_a_at) / Fold change (ACY-1035/veh), C12orf56 (ProbeSet 11735607_a_at) / Fold change (Aza/veh), FGFR1OP (ProbeSet 11751329_s_at) / Fold change (ACY-1035/veh), FGFR1OP (ProbeSet 11751329_s_at) / Fold change (Aza/veh), VPS36 (ProbeSet 11739960_a_at) / Fold change (ACY-1035/veh), VPS36 (ProbeSet 11739960_a_at) / RFU SYPL1 (11715823_x_at) / Fold change /veh SYPL1 (11715823_x_at) / RFU IGFBP7 (11715501_s_at) / Fold change /veh IGFBP7 (11715501_s_at) / RFU REEP3 (11722064_at) / Fold change /veh REEP3 (11722064_at) / RFU IGLL1 (11728026_x_at) / Fold change /veh IGLL1 (11728026_x_at): dose or concentration left out as unconfirmed
Settings: ProbeSet 11718701_a_at; LIST B

## Nc1ncn([C@@H]2O[C@H](CO)[C@@H](O)[C@H]2O)c(=O)n1 [azacitidine]
  RFU, ARFIP1: 68.44 RFU
